Columns and labels:
Type in all cases: cell-based
NANOLUC-DHFR fusion [1] = target: T1, NANOLUC-DHFR fusion (Homo sapiens, UniProt P00374); assay: Binding affinity to DHFR in live cells using BRET; conditions: HEK293 live cells, 1 μM PBI-4890 tracer, 2 h
T1 construct: expressed in transfected cells; host or cells: HEK293
T1 sequence (P00374 1-187): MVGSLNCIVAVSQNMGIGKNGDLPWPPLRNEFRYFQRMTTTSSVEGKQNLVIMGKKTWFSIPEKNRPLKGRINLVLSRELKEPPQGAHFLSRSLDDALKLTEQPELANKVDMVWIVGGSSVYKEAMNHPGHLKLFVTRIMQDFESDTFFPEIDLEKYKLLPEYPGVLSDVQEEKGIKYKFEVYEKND
Procedure: Binding affinity to DHFR in live cells was tested using BRET. HEK293 cells in wells of a 96-well plate were transfected using PEI with plasmid DNA encoding a NANOLUC-DHFR fusion. The DNA was diluted 1:50 with a promoterless carrier DNA plasmid (PSI) to a final concentration of 80 ng total DNA per well. Twenty-four hours post-transfection, cells were serum starved for additional 24 hours and then treated with serially diluted PBI-4848 or PBI-5015 in the presence of 1 μM PBI-4890 (TOM-methotrexate derivative). After two hours of equilibrium binding, furimazine (a coelenterazine derivative; Promega Corp.) was added to a final concentration of 20 μM, and BRET measured on a Varioskan luminometer.

NANOLUC-DHFR fusion [2] = target: T1, NANOLUC-DHFR fusion; assay: Pull-down of NANOLUC:DHFR from live HEK293 cells onto HALOTAG protein beads; conditions: 10 μM conjugate, release with 150 μM methotrexate
Procedure: The DNA was diluted 1:50 with a promoterless carrier DNA plasmid (PSI) to a final concentration of 80 ng total DNA per well. Twenty-four hours post-transfection, cells were serum starved for additional 24 h and then incubated with 10 μM PBI-4848 or PBI-5015 while control cells were not treated with the conjugated drug. Following equilibration binding of 2 h, the media was removed, and the cells quickly washed with PBS and lysed in detergent-based lysis buffer for 10 min. Cell lysates were then transferred to wells of a 96-well plate containing 0.5 μl settled paramagnetic HALOTAG protein beads and incubated with shaking for 45 min. Following binding, the unbound fraction was removed, the HALOTAG protein paramagnetic beads washed, 150 μM unconjugated methotrexate added, and the captured NANOLUC:DHFR specifically released from the beads by competition with the unconjugated methotrexate for 60 min. The released NANOLUC:DHFR (+PBI5015 or +PBI 4848) and control samples were detected by NANOGLO luciferase detection reagent.

DHFR = target: T2, DHFR (Homo sapiens, UniProt P00374); assay: Endogenous target pull-down from HEK293 cells, western blot and mass spec (Example 7); conditions: 10 uM conjugate, listed as Methotrexate-CA
T2 construct: isolate, e.g., pull-down, endogenous targets from cells; endogenous in cells; host or cells: HEK293
T2 sequence (P00374 1-187): T1 sequence (P00374 1-187)
Procedure: HEK293 cells were plated into wells of a 6-well plate (2.5×10^5 cells/well). 48 hours post plating, a final concentration of 10 uM of Methotrexate chloroalkane (PBI-5015) was added to 2 wells while control cells were not treated with the drug conjugate. Following equilibrium binding for 2 h, the media was removed, and the cells quickly washed with PBS and lysed in detergent-based lysis buffer for 10 min. Cell lysates were then transferred to an Eppendorf® tube containing 12.5 ul of settled paramagnetic HALOTAG protein beads and incubated with shaking for 15 min. Following binding, the unbound fraction was removed, the HALOTAG paramagnetic beads washed 3×, and the captured targets specifically released from the beads by competition with 150 μM unconjugated methotrexate for 60 mins. The released targets were subjected to mass spec analysis as well as western blot analysis using an anti-DHFR antibody (Sigma).

[3] = tested on: intracellular HDAC activity; assay: Intracellular HDAC activity, non-lytic HDAC-Glo I/II assay, HEK293 and K562 cells (Example 10); conditions: 2 hours treatment, relative to SAHA
Procedure: HEK293 cells were plated in a 96-well plate at 1×10^5 cell/ml in DMEM+10% serum, and 24 hours later, the media was replaced with serum free DMEM media. K562 cells were plated in serum free RPMI 1640 media into wells of a 96-well plate at 2×10^5 cells/ml. Cells were treated with serial dilutions of SAHA or PBI-5040 (SAHA-chloroalkane) for 2 hours and then tested for intracellular HDAC activity using the non-lytic HDAC-Glo™ I/II assay (Promega Corporation) according to manufacturer's instructions. […] The ˜2-fold reduction in SAHA potency due to the chloroalkane modification indicates minimal impact of the chloroalkane on cellular permeability or potency.

[4] = tested on: intracellular HDAC activity; assay: Intracellular HDAC activity, non-lytic HDAC-Glo I/II assay, K562 cells (Example 12); conditions: 2 hours treatment
Procedure: K562 cells were plated in serum free RPMI 1640 media into wells of a 96-well plate at 2×10^5 cells/ml. Cells were then treated with serial dilution of SAHA, PBI-5040 (SAHA-chloroalkane) or PBI 5475 (SAHA-biotin) for 2 hours and then tested for intracellular HDAC activity using the non-lytic HDAC-Glo™ I/II assay (Promega Corporation) according to manufacturer's instructions.

[5] = tested on: HDAC1, HDAC2, HDAC3, HDAC6, HDAC8; assay: Endogenous target pull-down from HEK293 cells, western blot and mass spec (Example 11); conditions: 20 uM conjugate
Procedure: HEK293 cells were plated in 100 mm dishes at 2×10^5 cells/ml. Forty-eight hours post plating, a final concentration of 20 uM SAHA-chloroalkane (PBI-5040) was added to 3 of the dishes (1×10^7 cells/dish), while 3 other dishes were not treated with the conjugated drug (control). Following equilibrium binding for 2 hours, the media was removed, the cells quickly washed with PBS, lysed in a detergent-based lysis buffer for 10 minutes and centrifuged at 3000×g for 1 minute. The cleared lysates were than added to 75 ul of settled paramagnetic HALOTAG beads and incubated with shaking for 15 minutes. Following binding, the unbound fraction was removed, the HALOTAG paramagnetic beads were washed 3× (wash buffer—50 mM HEPES pH7.5, 150 mM NaCl and 0.01% IGEPAL), and the captured targets specifically released from the beads by competition with 400 μM unconjugated SAHA for 60 minutes. The released targets were subjected to mass spec analysis (FIG. 11B) as well as western blot analysis (FIG. 1-A) with anti HDAC1 antibody (ABCAM); anti HDAC2 antibody (ABCAM); anti HDAC6 antibody (Millipore); anti HDAC3 antibody (Thermo Fisher) and anti HDAC8 antibody (Rockland/Promega).

[6] = tested on: HDAC1, HDAC2, HDAC3, HDAC6, HDAC8; assay: Endogenous target pull-down from K562 cells, western blot (Example 13); conditions: 20 uM conjugate
Procedure: K562 cells were plated in 150 mm dishes at 5×10^7 cells/dish. A final concentration of 20 uM SAHA chloroalkane (PBI-5040) or PBI-5475 (SAHA-biotin) was added to 2 dishes of cells while 2 other dishes of cells were not treated with the conjugated drug (control). Following equilibrium binding of 2 hours, the media was removed, the cells quickly washed with PBS and lysed in detergent-based lysis buffer for 10 minutes and centrifuged at 3000×g for 1 minute. The cleared lysates treated with PBI-5040, as well as the cleared lysates of the control cells, were added to 75 ul of settled paramagnetic HALTOG beads. The cleared lysates of the cells treated with PBI-5475, as well as the cleared lysate of the control cells, were added to 75 ul of settled paramagnetic Streptavidin beads (GE). Following 15 minutes of binding, the unbound fraction was removed, beads were washed 3×, and the captured targets specifically released from the beads by competition with 400 μM unconjugated SAHA for 60 minutes. The released targets were subjected to western blot analysis (FIG. 13) with anti HDAC1 antibody (ABCAM); anti HDAC2 antibody (ABCAM); anti HDAC6 antibody (Millipore); anti HDAC3 antibody (Thermo Fisher) and anti HDAC8 antibody (Rockland/Promega).

SMILES	affinity to DHFR (dose-response BRET curves) (NANOLUC-DHFR fusion [1])	pull-down of Nluc:DHFR fusion (NANOLUC-DHFR fusion [2])	pull-down of endogenous DHFR (DHFR)	reduction in SAHA potency due to the chloroalkane modification [3] [fold]	reduction in potency relative to SAHA [4] [fold]	pull-down of endogenous SAHA targets (HDACs) [5]	pull-down of endogenous SAHA targets (HDACs) ([5]; listed as SAHA-CA)	pull-down of endogenous SAHA targets (HDACs) ([6]; listed as SAHA-CA)	pull-down of endogenous SAHA targets (HDACs) ([6]; listed as SAHA-chloroalkane)
CN(Cc1cnc2nc(N)nc(N)c2n1)c1ccc(C(=O)NC(CCC(=O)NCCCCCNC(=O)OCCOCCOCCOC(=O)NCCOCCOCCCCCCCl)C(=O)O)cc1 (stereo not shown) [PBI-5015]	lower affinity to DHFR	efficiently pulled down the Nluc:DHFR fusion	specific pull down of DHFR	–	–	–	–	–	–
O=C(CCCCCCC(=O)Nc1ccc(CNC(=O)OCCOCCOCCOC(=O)NCCOCCOCCCCCCCl)cc1)NO [PBI-5040]	–	–	–	~2	~2	all known targets of SAHA, including low affinity target (HDAC8) and low abundance target (HDAC3), can be specifically pull down	specific pull down of all known targets	specific pull down of all known targets of SAHA	all known targets of SAHA, including a low affinity target (HDAC8) and a low abundance target (HDAC3), were specifically pulled down
CN(Cc1cnc2nc(N)nc(N)c2n1)c1ccc(C(=O)NC(CCC(=O)NCCOCCOCCCCCCCl)C(=O)O)cc1 (stereo not shown) [PBI-4848]	higher affinity to DHFR	–	–	–	–	–	–	–	–
